Laboratory results from PMC10794144, “A novel antibiotic class targeting the lipopolysaccharide transporter” (Nature, 2024).
Read-outs that look alike come from different tables or passages of the source.

What was measured:
[1] = Human plasma precipitation assay; design: key: 0: none; 1: mild; 2: moderate; 3: marked; conditions: observed only at 2 mg/mL (0.125–2 mg/mL tested)
Protocol: For the plasma precipitation assay, test item formulations of compounds were diluted as follows with the vehicle (0.9% aqueous sodium chloride solution): undiluted, 1:2, 1:4, 1:8 and 1:16. These serial dilutions were then added into test tubes containing 0.5 ml of plasma to give a final assay volume of 1 ml with a final concentration of 4 mg ml^−1 assay volume or less. After centrifugation of the samples (1,811g; 10 min; at room temperature), plasma precipitation was visually determined by scoring the resulting pellet (score: 0, none; 1, mild; 2, moderate; 3, marked).

E. coli LptB2FGC = target: T1, E. coli LptB2FGC (Escherichia coli, UniProt P0ADC6+P0AF98); assay: LPS-release assay, proteoliposomes to LptA; type: biochemical; conditions: E. coli LptB2FGC proteins
T1 construct: made in house; host or cells: E. coli C43(λDE3)
Protocol: The levels of release of LPS from proteoliposomes to LptA were measured as previously described. Assays used 60% proteoliposomes (by volume) in a solution containing 50 mM Tris-HCl (pH 8.0), 500 mM NaCl, 10% glycerol and 2 µM LptA^I36pBPA. Reaction mixtures were incubated with drug for 10 min at room temperature, as applicable. Reactions were then initiated by the addition of ATP and MgCl2 (final concentrations of 5 mM and 2 mM, respectively) and proceeded at 30 °C. Aliquots (25 µl) were removed from the reaction mixtures and irradiated with ultraviolet light (365 nm) on ice for 10 min using a B-100AP lamp (Thermo Fisher Scientific). After ultraviolet irradiation, 25 µl 2× SDS–PAGE sample loading buffer was added, the samples were boiled for 10 min and proteins were separated using Tris-HCl 4–20% polyacrylamide gradient gels with Tris-glycine running buffer. Immunoblotting was conducted as described above.

T1 sequence (P0AF98 whole entry): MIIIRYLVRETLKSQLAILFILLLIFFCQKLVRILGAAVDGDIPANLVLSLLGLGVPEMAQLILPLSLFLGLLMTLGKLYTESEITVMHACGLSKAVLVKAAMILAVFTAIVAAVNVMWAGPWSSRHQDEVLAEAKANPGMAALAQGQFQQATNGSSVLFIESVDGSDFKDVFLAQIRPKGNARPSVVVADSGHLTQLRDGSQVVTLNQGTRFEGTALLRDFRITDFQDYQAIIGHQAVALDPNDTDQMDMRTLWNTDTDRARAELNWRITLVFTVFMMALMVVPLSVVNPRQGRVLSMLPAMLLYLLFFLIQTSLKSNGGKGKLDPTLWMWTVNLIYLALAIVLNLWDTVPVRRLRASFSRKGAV
T1 sequence (P0ADC6 whole entry): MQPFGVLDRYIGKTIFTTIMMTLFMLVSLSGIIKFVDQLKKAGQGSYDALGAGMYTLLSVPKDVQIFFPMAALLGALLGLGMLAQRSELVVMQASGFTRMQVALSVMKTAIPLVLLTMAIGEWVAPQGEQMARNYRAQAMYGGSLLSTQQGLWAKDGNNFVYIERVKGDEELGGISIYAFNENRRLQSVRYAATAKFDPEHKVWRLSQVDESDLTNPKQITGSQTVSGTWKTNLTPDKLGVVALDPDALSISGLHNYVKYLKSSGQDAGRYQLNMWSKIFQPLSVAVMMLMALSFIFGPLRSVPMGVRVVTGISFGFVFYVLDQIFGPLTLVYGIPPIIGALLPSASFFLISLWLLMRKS
T1 sequence (P0A9V1 whole entry partner): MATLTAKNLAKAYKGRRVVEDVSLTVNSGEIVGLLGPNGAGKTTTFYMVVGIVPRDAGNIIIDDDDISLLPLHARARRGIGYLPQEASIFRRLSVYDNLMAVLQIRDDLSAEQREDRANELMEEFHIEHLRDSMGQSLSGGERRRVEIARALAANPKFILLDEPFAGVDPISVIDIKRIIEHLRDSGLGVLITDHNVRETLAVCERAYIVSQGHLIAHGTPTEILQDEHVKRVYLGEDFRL
T1 sequence (P0ADV9 whole entry partner): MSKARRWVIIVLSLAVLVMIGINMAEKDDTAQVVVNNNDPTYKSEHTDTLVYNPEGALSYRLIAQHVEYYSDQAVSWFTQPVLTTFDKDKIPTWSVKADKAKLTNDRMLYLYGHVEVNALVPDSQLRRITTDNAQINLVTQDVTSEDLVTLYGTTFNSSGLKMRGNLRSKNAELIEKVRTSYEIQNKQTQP

CN1C(=O)[C@H](CCCCN)NC(=O)[C@H](CCCN)NCc2cccnc2Sc2cccc(-c3ccc(C(=O)O)cc3)c2CNC(=O)[C@@H]1Cc1c[nH]c2ccccc12 [zosurabalpin]
Precipitation score [1]: Observed only at 2 mg/mL^6 (1) | LPS extraction to LptA (E. coli LptB2FGC): no effect on LPS extraction | MIC_WT (A. baumannii; A. baumannii ATCC 17978, wild type (parental strain)): 0.06 µM | MIC_WT (A. baumannii; A. baumannii ATCC 19606, wild type (parental strain)): 0.25 µM | MIC_WT (A. baumannii; A. baumannii ROB08705, wild type (parental strain)): 0.13 µM | MIC_WT (A. baumannii; A. baumannii ROB08706, wild type (parental strain)): 1.0 µM | MIC_value (A. baumannii; ATCC 17978 clone 1D1, run AB17978_3280_HS, evolved in HS/MHB): 128 µM | MIC_value (A. baumannii; ATCC 17978 clone 1D3, run AB17978_3280_HS, evolved in HS/MHB): 128 µM | MIC_value (A. baumannii; ATCC 17978 clone 1E3, run AB17978_3280_MHB, evolved in MHB): 16 µM | MIC_value (A. baumannii; ATCC 17978 clone 1F1, run AB17978_3280_MHB, evolved in MHB): >128 µM | MIC_value (A. baumannii; ATCC 17978 clone 2C1, run AB17978_3280_HS, evolved in HS/MHB): 16 µM | MIC_value (A. baumannii; ATCC 17978 clone 2C1, run AB17978_3280_MHB, evolved in MHB): 2 µM | MIC_value (A. baumannii; ATCC 17978 clone 2C2, run AB17978_3280_HS, evolved in HS/MHB): 8 µM | MIC_value (A. baumannii; ATCC 17978 clone 2C3, run AB17978_3280_HS, evolved in HS/MHB): 4 µM | MIC_value (A. baumannii; ATCC 17978 clone 2C4, run AB17978_3280_MHB, evolved in MHB): 8 µM | MIC_value (A. baumannii; ATCC 17978 clone 2D2, run AB17978_3280_MHB, evolved in MHB): 8 µM | MIC_value (A. baumannii; ATCC 17978 clone 2D3, run AB17978_3280_HS, evolved in HS/MHB): 32 µM | MIC_value (A. baumannii; ATCC 17978 clone 3D1, run AB17978_3280_HS, evolved in HS/MHB): 32 µM | MIC_value (A. baumannii; ATCC 17978 clone 4D1, run AB17978_3280_MHB, evolved in MHB): 64 µM | MIC_value (A. baumannii; ATCC 17978 clone 5B1, run AB17978_3280_HS, evolved in HS/MHB): 1 µM | MIC_value (A. baumannii; ATCC 17978 clone 5C1, run AB17978_3280_HS, evolved in HS/MHB): 64 µM | MIC_value (A. baumannii; ATCC 17978 clone 5E1, run AB17978_3280_MHB, evolved in MHB): >32 µM | MIC_value (A. baumannii; ATCC 17978 clone 6E1, run AB17978_3280_HS, evolved in HS/MHB): 32 µM | MIC_value (A. baumannii; ATCC 17978 clone 6E1, run AB17978_3280_MHB, evolved in MHB): 4 µM | MIC_value (A. baumannii; ATCC 17978 clone 6E2, run AB17978_3280_HS, evolved in HS/MHB): 16 µM | MIC_value (A. baumannii; ATCC 17978 clone 6E3, run AB17978_3280_HS, evolved in HS/MHB): 32 µM | MIC_value (A. baumannii; ATCC 17978 clone 6E4, run AB17978_3280_HS, evolved in HS/MHB): 32 µM | MIC_value (A. baumannii; ATCC 17978 clone 6E4, run AB17978_3280_MHB, evolved in MHB): 8 µM | MIC_value (A. baumannii; ATCC 17978 clone 6E5, run AB17978_3280_HS, evolved in HS/MHB): 32 µM | MIC_value (A. baumannii; ATCC 17978 clone 6E6, run AB17978_3280_HS, evolved in HS/MHB): 8 µM | MIC_value (A. baumannii; ATCC 17978 clone 6E9, run AB17978_3280_HS, evolved in HS/MHB): 8 µM | MIC_value (A. baumannii; ATCC 19606 clone 1C2, run AB19606_3280_HS, evolved in HS_MHB): 8 µM | MIC_value (A. baumannii; ATCC 19606 clone 1C3, run AB19606_3280_HS, evolved in HS_MHB): 16 µM | MIC_value (A. baumannii; ATCC 19606 clone 1C4, run AB19606_3280_HS, evolved in HS_MHB): 8 µM | MIC_value (A. baumannii; ATCC 19606 clone 2C1, run AB19606_3280_HS, evolved in HS_MHB): 64 µM | MIC_value (A. baumannii; ATCC 19606 clone 2C3, run AB19606_3280_HS, evolved in HS_MHB): 64 µM | MIC_value (A. baumannii; ATCC 19606 clone 2C6, run AB19606_3280_HS, evolved in HS_MHB): 16 µM | MIC_value (A. baumannii; ATCC 19606 clone 2E1, run AB19606_3280_MHB, evolved in MHB): 16 µM | MIC_value (A. baumannii; ATCC 19606 clone 2E2, run AB19606_3280_MHB, evolved in MHB): 16 µM | MIC_value (A. baumannii; ATCC 19606 clone 2E3, run AB19606_3280_MHB, evolved in MHB): 8 µM | MIC_value (A. baumannii; ATCC 19606 clone 2E6, run AB19606_3280_MHB, evolved in MHB): 16 µM | MIC_value (A. baumannii; ATCC 19606 clone 3D1, run AB19606_3280_MHB, evolved in MHB): 2 µM | MIC_value (A. baumannii; ATCC 19606 clone 3F1, run AB19606_3280_MHB, evolved in MHB): 64 µM | MIC_value (A. baumannii; ATCC 19606 clone 4C1, run AB19606_3280_HS, evolved in HS_MHB): 4 µM | MIC_value (A. baumannii; ATCC 19606 clone 4C2, run AB19606_3280_HS, evolved in HS_MHB): 16 µM | MIC_value (A. baumannii; ATCC 19606 clone 4C7, run AB19606_3280_HS, evolved in HS_MHB): 64 µM | MIC_value (A. baumannii; ATCC 19606 clone 5C4, run AB19606_3280_HS, evolved in HS_MHB): 32 µM | MIC_value (A. baumannii; ATCC 19606 clone 5E2, run AB19606_3280_HS, evolved in HS_MHB): 16 µM
